# Reference: paper PMC5854746 (Cancer Chemotherapy and Pharmacology, 2018)
# Where “and” joins values, the source holds several entries; their conditions need not be identical. Equal entries are not always repeated. Entries after “also recorded” stand apart in the source; their conditions may differ. Where two headings read alike, the source gives them in different places.
# Key:
# clinical = conditions: human, plasma; for clearance: Cltot; for half-life: T 1/2el; for Vd: V d; for AUC(0-t): 100 mg p.o.
# Description: Patients eligible for this phase 1b study suffered from histologically or cytologically documented adenocarcinoma of the pancreas with locally advanced not radically resectable or metastatic disease. […] All concomitant medication was reported and the intake of drugs inhibiting or inducing CYP3A4 was prohibited during the study, along with medication specifically contraindicated to one of the three study drugs [1, 23, 24]. All patients were asked to keep a diary during their treatment, containing co-medication and health status to retrace possible interactions and treatment failures.
# Patients had been informed about the aim of this investigation and had given their written consent.
# For the pharmacokinetic analysis of plasma concentration data on day 1, Phoenix WinNonlin version 6.2.1 software (Pharsight Corporation, a Certara™ company) was used to calculate the PK parameters Cpeak, Ctrough, Tmax, AUC0–24 as well as the volume of distribution (Vd), total body clearance (Cltot) and terminal half-life (T1/2el). […] From day 2 until day 8, the trough and peak concentrations were analyzed, but only the trough concentrations were evaluated until the end of the study. The parameters were calculated as arithmetic mean ± SD and the range (min–max) was calculated for comparison to the simulation output.
# [1] = Optimized value, updated based on literature data ref 1, 32; cited from earlier work
# [2] = system: plasma proteins, mainly albumin and α-1 acid glycoprotein; conditions: cited from earlier work
# [3] = oral; 9 (ref 1, 11); cited from earlier work
# [4] = cited from earlier work
# [5] = Day 3, observed, 100 mg p.o. q.d., n=26
# [6] = Day 6 (steady state), observed, 100 mg p.o. q.d., n=26
# [7] = co-administered ARAs, study population
# [8] = oral, mean ± SD, Day 1, observed, n=26, calculated with a bioavailability of 60%
# [9] = oral, min–max, Day 1, observed, n=26
# 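Throughout, for C last (trough at 24 h), mean ± SD: plasma pharmacokinetics in a phase 1b study of patients with locally advanced or metastatic pancreatic adenocarcinoma.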
# 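Throughout, for C peak, mean ± SD: plasma pharmacokinetics in a phase 1b study of patients with locally advanced or metastatic pancreatic adenocarcinoma.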
# 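Throughout, for C trough, mean ± SD: plasma pharmacokinetics in a phase 1b study of patients with locally advanced or metastatic pancreatic adenocarcinoma.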
# 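Throughout, for T max, median: plasma pharmacokinetics in a phase 1b study of patients with locally advanced or metastatic pancreatic adenocarcinoma.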
smiles,measurement,setting,value
C#Cc1cccc(Nc2ncnc3cc(OCCOC)c(OCCOC)cc23)c1 [erlotinib],"C peak, mean ± SD","Day 1, observed, 100 mg erlotinib p.o. q.d., patients n=26, arithmetic mean",0.84 µg/mL and 0.84 ± 0.54 µg/mL
same,"C last (trough at 24 h), mean ± SD","Day 1, observed, 100 mg p.o. q.d., n=26",330 ± 290 ng/mL
same,"T max, median","Day 1, observed, 100 mg p.o., n=26",2.00 h
same,"C peak, mean ± SD",[5],1.04 ± 0.62 µg/mL
same,"C trough, mean ± SD",[5],450 ± 370 ng/mL
same,"C peak, mean ± SD",[6],1.38 µg/mL and 1.38 ± 0.66 µg/mL
same,"C trough, mean ± SD",[6],720 ng/mL and 720 ± 530 ng/mL
same,Mean trough concentration ± SD,"Pat.3, weeks 1–50, N=50, 100 mg q.d.",0.89 ± 0.68 µg/mL
same,Mean trough concentration ± SD,"Pat.4, weeks 1–8, N=7, 100 mg q.d.",0.66 ± 0.27 µg/mL
same,Mean trough concentration ± SD,"Pat.5, co-medication of acid reducing agents, weeks 1–4, N=4, 100 mg q.d.",0.37 ± 0.09 µg/mL
same,Mean trough concentration ± SD,"Pat.6, weeks 1–8, N=8, 100 mg q.d.",1.78 ± 0.74 µg/mL
same,Mean trough concentration ± SD,"Pat.7, weeks 1–9, N=9, 100 mg q.d.",1.20 ± 0.51 µg/mL
same,Reduction of AUC0–24,[7],52%
same,Reduction of Cmax,[7],56%
same,Patients with concentrations below the activity threshold of 0.5 µg/ml,during the first week,7%
same,Patients that never reached the threshold of 0.5 µg/ml,first week of erlotinib therapy,2 of the 26 patients
same,Patients with Ctrough values below the activity threshold,"long-term analysis, all received ARAs concomitantly",5 of the 10 patients
same,Accumulation of erlotinib in plasma,"long-term monitoring up to 50 weeks, 100 mg q.d.",did not show any significant accumulation; also recorded: did not lead to drug accumulation
same,Patients that did not reach the threshold of 0.5 µg/ml,within 24 h after the first administration,10 of the 26 patients
same,clearance,clinical; [8],91.8 mL/min
same,clearance,clinical; [9],7.83 to 502 mL/min
same,concentration at 24 h,"clinical; oral, Mean erlotinib trough concentrations calculated for each patient, range, long-term study, 10 patients, 100 mg q.d.",60 to 1780 ng/mL
same,concentration at 24 h,"clinical; oral, Mean trough concentration ± SD, Pat.1, weeks 1–15, N=10, 100 mg erlotinib q.d.",1670 ± 440 ng/mL
same,concentration at 24 h,"clinical; oral, Mean trough concentration ± SD, Pat.10, co-medication of acid reducing agents, weeks 1–11, N=11, 100 mg q.d.",160 ± 60 ng/mL
same,concentration at 24 h,"clinical; oral, Mean trough concentration ± SD, Pat.2, co-medication of acid reducing agents, weeks 1–9, N=9, 100 mg q.d.",160 ± 40 ng/mL
same,concentration at 24 h,"clinical; oral, Mean trough concentration ± SD, Pat.8, co-medication of acid reducing agents, weeks 1–16, N=16, 100 mg q.d.",270 ± 380 ng/mL
same,concentration at 24 h,"clinical; oral, Mean trough concentration ± SD, Pat.9, co-medication of acid reducing agents, weeks 1–50, N=47, 100 mg q.d.",60 ± 40 ng/mL
same,half-life,"clinical; oral, mean ± SD, Day 1, observed, n=26",18.7 ± 13.1 h
same,half-life,clinical; [9],4.1 to 59 h
same,concentration at 24 h,"clinical; oral, Trough concentration min–max, Pat.1, weeks 1–15, N=10, 100 mg erlotinib q.d.",770 to 2200 ng/mL
same,concentration at 24 h,"clinical; oral, Trough concentration min–max, Pat.10, co-medication of acid reducing agents, weeks 1–11, N=11, 100 mg q.d.",70 to 310 ng/mL
same,concentration at 24 h,"clinical; oral, Trough concentration min–max, Pat.8, co-medication of acid reducing agents, weeks 1–16, N=16, 100 mg q.d.",20 to 1310 ng/mL
same,concentration at 24 h,"clinical; oral, Trough concentration min–max, Pat.9, co-medication of acid reducing agents, weeks 1–50, N=47, 100 mg q.d.",10 to 160 ng/mL
same,concentration at 24 h,"clinical; oral, Trough plasma concentrations, range, long-term assessment (up to 50 weeks), 100 mg q.d., 10 patients",10 to 2400 ng/mL
same,Vd,clinical; [8],97.9 ± 61.7 L
same,Vd,clinical; [9],18 to 268 L
same,Tmax,"clinical; po, 100 mg",1 to 8 h
same,AUC(0-t),"clinical; po, 100 mg, AUC0–24, mean ± SD, Day 1, observed, n=26",12500 ± 9380 ng·h/mL
same,AUC(0-t),"clinical; po, 100 mg, AUC0–24, min–max, Day 1, observed, n=26",1230 to 36400 ng·h/mL
same,concentration at 24 h,"clinical; po, C last (trough at 24 h), mean ± SD, Day 1, observed, 100 mg p.o. q.d., n=26",330 ng/mL
same,concentration at 24 h,"clinical; po, C last (trough at 24 h), min–max, Day 1, observed, 100 mg p.o. q.d., n=26",40 to 1220 ng/mL
same,Basic pKa,[1],5.4
same,Intrinsic solubility,[1],8.9 µg/mL
same,Bound to plasma proteins,[2],approximately 95%
same,Bioavailability (estimated),[3],60%
same,Solubility in water,[4]; free base,only very slightly soluble in water
same,Biopharmaceutics Classification System (BCS) class,"[4]; low solubility, high permeability",class II
same,pKa,"[4]; weak base, limited solubility at pH above it",5.4
